Source: US20260015350A1, “AZAQUINAZOLINE PAN-KRAS INHIBITORS” (Mirati Therapeutics, Inc., priority 2022, published 2026)

Experiments:
[1] = biological target: T1, KRas^G12D (Homo sapiens, UniProt P01116, G12D); experiment: KRas binding assay (TR-FRET tracer displacement), KRas G12D
T1 construct: Biotinylated KRas (corresponding to amino acids 1-169, produced at Accelegan Inc.); biotin (biotinylated); purchased Accelegan Inc

[2] = biological target: T2, KRas^G12R (Homo sapiens, UniProt P01116, G12R); experiment: KRas binding assay (TR-FRET tracer displacement), KRas G12R
T2 construct: Biotinylated KRas (corresponding to amino acids 1-169, produced at Accelegan Inc.); biotin (biotinylated); purchased Accelegan Inc

[3] = biological target: T3, KRas^G12V (Homo sapiens, UniProt P01116, G12V); experiment: KRas binding assay (TR-FRET tracer displacement), KRas G12V
T3 construct: Biotinylated KRas (corresponding to amino acids 1-169, produced at Accelegan Inc.); biotin (biotinylated); purchased Accelegan Inc

[4] = system: KRas-mediated phosphorylation of ERK in AsPC-1 cells; experiment: Inhibition of KRas-mediated phosphorylation of ERK (Cisbio HTRF pERK), AsPC-1 cells; type: cell-based; settings: for IC50: HTRF pERK
Procedure: (§1) Inhibition of KRas Phosphorylation of ERK (HTRF) by Exemplary Compounds of Formula (I) Cisbio HTRF Advanced PERK Assay Catalog #64[…] […] Add 10 mL of media to stop trypsinizing. Pipette the cells into a conical bottom 50 mL centrifuge tube and centrifuge 5 min×1000 rpm. […] Re-suspend the cell pellet in media, take a cell count, and then adjust the cell density using fresh media. […] Seed 6,000 cells into cell culture plate with 50 μL media. […] Use Tecan to complete the compound addition. Compounds start from 10 uM top, 3-fold dilution, and 10 doses. The final DMSO concentration is 0.8%. Dispensed 0.2 uM Trametinib as Min control. […] Incubate cell plate for 3 hrs in the incubator. […] Dilute 1 volume of 4× lysis buffer with 3 volumes of deionized water. […] Keep lysis buffer on the ice. […] At the end of the compound treatment, flick-off the media. […] Add 35 μL of lysis buffer per well using a Multidrop Combi. Then place on a plate agitator shaking at 300 rpm at 4° C. for 40 mins. […] Make up the HTRF antibody buffer. For each assay plate, mix 50 μL of d2-conjugate antibody with 950 μL of detection buffer. Similarly, mix 50 μL of Cryptate antibody with 950 μL of detection buffer. Then mix the two diluted antibodies together. […] Dispense 3.4 μL the antibody buffer to wells of an empty assay plate. Seal the plate and centrifuge plate 30 sec×1000 rpm. […] At the end of the 4° C. lysis, centrifuge the lysate plates 3 mins×1500 rpm. […] Use the Bravo to transfer 13.6 μL of lysate from cell culture plate to assay plate. Then incubate assay plate for 2 hrs at room temperature. 8. At the end of incubation, read plate on the Envision after centrifuging plate 30 sec×1000 rpm.

[5] = system: KRas-mediated phosphorylation of ERK in H727 cells; experiment: Inhibition of KRas-mediated phosphorylation of ERK (Cisbio HTRF pERK), H727 cells; type: cell-based; settings: for IC50: HTRF pERK
Procedure: as §1

[6] = Homo sapiens, ASPC1, AsPC-1 cells
[7] = Homo sapiens, NCI-H727, H727 cells

T3 sequence (P01116 1-169 isoform P01116-2 G12V): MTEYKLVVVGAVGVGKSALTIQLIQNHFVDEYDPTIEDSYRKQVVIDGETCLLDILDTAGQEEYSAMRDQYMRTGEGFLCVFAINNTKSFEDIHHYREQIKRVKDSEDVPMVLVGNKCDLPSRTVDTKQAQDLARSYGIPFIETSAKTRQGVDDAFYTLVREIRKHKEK
T2 sequence (P01116 1-169 isoform P01116-2 G12R): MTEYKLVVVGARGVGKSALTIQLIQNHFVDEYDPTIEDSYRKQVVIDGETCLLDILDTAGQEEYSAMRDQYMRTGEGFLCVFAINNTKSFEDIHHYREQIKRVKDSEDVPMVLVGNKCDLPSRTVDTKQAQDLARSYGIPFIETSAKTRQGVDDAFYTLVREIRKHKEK
T1 sequence (P01116 1-169 isoform P01116-2 G12D): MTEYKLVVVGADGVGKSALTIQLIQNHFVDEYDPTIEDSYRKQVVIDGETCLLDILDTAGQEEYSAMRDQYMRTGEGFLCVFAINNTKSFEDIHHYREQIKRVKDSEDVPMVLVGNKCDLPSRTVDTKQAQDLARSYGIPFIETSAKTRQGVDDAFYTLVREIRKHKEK

Structure (SMILES) | IC50 [1] | IC50 [2] | IC50 [3] | IC50 [4, 6] | IC50 [5, 7] | inhibition at 0.1 µM ([4]; Homo sapiens, ASPC1, 3 h, single point, 100 nM compound, 3 hrs, AsPC-1 cells) | inhibition at 0.1 µM ([5]; Homo sapiens, NCI-H727, 3 h, single point, 100 nM compound, 3 hrs, H727 cells) | IC50 ([4]; AsPC-1 cells) | IC50 ([5]; H727 cells)
CCc1c(F)ccc2cc(O)cc(-c3ncc4c(N5CCC6(CC5)OCCC6O)nc(OC[C@@]56CCCN5C[C@H](F)C6)nc4c3F)c12 (stereo partly drawn) [Example 600, 8-(7-(8-ethyl-7-fluoro-3-hydroxynaphthalen-1-yl)-8-fluoro-2-(((2R,7aS)-2-fluorotetrahydro-1H-pyrrolizin-7a(5H)-yl)methoxy)pyrido[4,3-d]pyrimidin-4-yl)-1-oxa-8-azaspiro[4.5]decan-4-ol] | 5040 nM | 886 nM | 880 nM | > 10000 nM | > 10000 nM |  |  |  | 
CCc1c(F)ccc2cc(O)cc(-c3ncc4c(N5C[C@@H]6[C@@H](C(N)=O)NC(=O)[C@@H]6C5)nc(OC[C@@]56CCCN5C[C@H](F)C6)nc4c3F)c12 [Example 622, (3aS,6aR)-5-(7-(8-ethyl-7-fluoro-3-hydroxynaphthalen-1-yl)-8-fluoro-2-(((2R,7aS)-2-fluorotetrahydro-1H-pyrrolizin-7a(5H)-yl)methoxy)pyrido[4,3-d]pyrimidin-4-yl)-3-oxooctahydropyrrolo[3,4-c]pyrrole-1-carboxamide] | 377 nM | 139 nM | 68 nM | > 10000 nM | > 10000 nM |  |  |  | 
CCc1c(F)ccc2cc(O)cc(-c3ncc4c(N5C6CNC(=O)CC5COC6)nc(OC[C@@]56CCCN5C[C@H](F)C6)nc4c3F)c12 (stereo partly drawn) [Example 599, 10-(7-(8-ethyl-7-fluoro-3-hydroxynaphthalen-1-yl)-8-fluoro-2-(((2R,7aS)-2-fluorohexahydro-1H-pyrrolizin-7a-yl)methoxy)pyrido[4,3-d]pyrimidin-4-yl)-8-oxa-3,10-diazabicyclo[4.3.1]decan-4-one] | 2120 nM | 23 nM | 85 nM | > 10000 nM | > 10000 nM |  |  |  | 
CCc1c(F)ccc2cc(O)cc(-c3ncc4c(NCc5cc(C(=O)N(C)C)n([C@H]6C[C@H](O)C6)n5)nc(OC[C@@]56CCCN5C[C@H](F)C6)nc4c3F)c12 [Example 680, 3-(((7-(8-ethyl-7-fluoro-3-hydroxynaphthalen-1-yl)-8-fluoro-2-(((2R,7aS)-2-fluorohexahydro-1H-pyrrolizin-7a-yl)methoxy)pyrido[4,3-d]pyrimidin-4-yl)amino)methyl)-1-(trans-3-hydroxycyclobutyl)-N,N-dimethyl-1H-pyrazole-5-carboxamide] | 473 nM | 234 nM | 43 nM | > 10000 nM | > 10000 nM |  |  |  | 
CCc1c(F)ccc2cc(O)cc(-c3ncc4c(N5CCCn6nc(C(=O)N(C)C)cc6C5)nc(N5CC(N)C5)nc4c3F)c12 [Example 529, 5-(2-(3-aminoazetidin-1-yl)-7-(8-ethyl-7-fluoro-3-hydroxynaphthalen-1-yl)-8-fluoropyrido[4,3-d]pyrimidin-4-yl)-N,N-dimethyl-5,6,7,8-tetrahydro-4H-pyrazolo[1,5-a][1,4]diazepine-2-carboxamide] | 14 nM | 36 nM | 21 nM | > 10000 nM | > 10000 nM |  |  |  | 
CCc1c(F)ccc2cc(O)cc(-c3ncc4c(N5Cc6n[nH]c(C(=O)N(C)C)c6C5)nc(OC[C@@]56CCCN5C[C@H](F)C6)nc4c3F)c12 [Example 635, 5-(7-(8-ethyl-7-fluoro-3-hydroxynaphthalen-1-yl)-8-fluoro-2-(((2R,7aS)-2-fluorotetrahydro-1H-pyrrolizin-7a(5H)-yl)methoxy)pyrido[4,3-d]pyrimidin-4-yl)-N,N-dimethyl-2,4,5,6-tetrahydropyrrolo[3,4-c]pyrazole-3-carboxamide] | 1640 nM | 766 nM | 454 nM | > 10000 nM | > 10000 nM |  |  |  | 
CCc1c(F)ccc2cc(O)cc(-c3ncc4c(N5C[C@@H]6[C@@H](CC#N)NC(=O)[C@@H]6C5)nc(OC[C@@]56CCCN5C[C@H](F)C6)nc4c3F)c12 [Example 606, 2-((1R,3aS,6aR)-5-(7-(8-ethyl-7-fluoro-3-hydroxynaphthalen-1-yl)-8-fluoro-2-(((2R,7aS)-2-fluorohexahydro-1H-pyrrolizin-7a-yl)methoxy)pyrido[4,3-d]pyrimidin-4-yl)-3-oxooctahydropyrrolo[3,4-c]pyrrol-1-yl) acetonitrile] | 26 nM | 71 nM | 43 nM | > 10000 nM | > 10000 nM |  |  |  | 
CCc1c(F)ccc2cc(O)cc(-c3ncc4c(NCc5cc(C(=O)N(C)C)nn5C[C@H]5C[C@H](O)C5)nc(OC[C@@]56CCCN5C[C@H](F)C6)nc4c3F)c12 [Example 686, 5-(((7-(8-ethyl-7-fluoro-3-hydroxynaphthalen-1-yl)-8-fluoro-2-(((2R,7aS)-2-fluorohexahydro-1H-pyrrolizin-7a-yl)methoxy)pyrido[4,3-d]pyrimidin-4-yl)amino)methyl)-1-((trans-3-hydroxycyclobutyl)methyl)-N,N-dimethyl-1H-pyrazole-3-carboxamide] | 21 nM | 5 nM | 6 nM | > 10000 nM | 8840 nM |  |  |  | 
CCc1c(F)ccc2cc(O)cc(-c3ncc4c(N5CCC6CCCC5C6)nc(OC[C@@]56CCCN5C[C@H](F)C6)nc4c3F)c12 (stereo partly drawn) [Example 552, 4-(4-(2-azabicyclo[3.3.1]nonan-2-yl)-8-fluoro-2-(((2R,7aS)-2-fluorotetrahydro-1H-pyrrolizin-7a(5H)-yl)methoxy)pyrido[4,3-d]pyrimidin-7-yl)-5-ethyl-6-fluoronaphthalen-2-ol] | 810 nM | 71 nM | 244 nM | 9330 nM | 5300 nM |  |  |  | 
CCc1c(F)ccc2cc(O)cc(-c3ncc4c(N5CCC[C@@](C)(O)C5)nc(N5CC(N)C5)nc4c3F)c12 [Example 527, (R)-1-(2-(3-aminoazetidin-1-yl)-7-(8-ethyl-7-fluoro-3-hydroxynaphthalen-1-yl)-8-fluoropyrido[4,3-d]pyrimidin-4-yl)-3-methylpiperidin-3-ol] | 116 nM | 193 nM | 150 nM | > 10000 nM | > 10000 nM |  |  |  | 
CCc1c(F)ccc2cc(O)cc(-c3ncc4c(NCc5cc(C(=O)N(C)C)nn5C5CCC5O)nc(OC[C@@]56CCCN5C[C@H](F)C6)nc4c3F)c12 (stereo partly drawn) [Example 677, 5-(((7-(8-ethyl-7-fluoro-3-hydroxynaphthalen-1-yl)-8-fluoro-2-(((2R,7aS)-2-fluorotetrahydro-1H-pyrrolizin-7a(5H)-yl)methoxy)pyrido[4,3-d]pyrimidin-4-yl)amino)methyl)-1-(2-hydroxycyclobutyl)-N,N-dimethyl-1H-pyrazole-3-carboxamide] | 13 nM | < 2 nM | < 2 nM |  | 4580 nM | -8% | 2% |  | 
CCc1c(F)ccc2cc(O)cc(-c3ncc4c(N5CCC(C)(C)SC(C)(C)C5)nc(OC[C@@]56CCCN5C[C@H](F)C6)nc4c3F)c12 [Example 626, 5-ethyl-6-fluoro-4-(8-fluoro-2-(((2R,7aS)-2-fluorohexahydro-1H-pyrrolizin-7a-yl)methoxy)-4-(2,2,7,7-tetramethyl-1,4-thiazepan-4-yl)pyrido[4,3-d]pyrimidin-7-yl)naphthalen-2-ol] | 98800 nM | 23600 nM | 43000 nM | > 10000 nM | > 10000 nM |  |  |  | 
CCc1c(F)ccc2cc(O)cc(-c3ncc4c(N5CCCC6(C5)CN(S(C)(=O)=O)C6)nc(OC[C@@]56CCCN5C[C@H](F)C6)nc4c3F)c12 [Example 654, 5-ethyl-6-fluoro-4-(8-fluoro-2-(((2R,7aS)-2-fluorohexahydro-1H-pyrrolizin-7a-yl)methoxy)-4-(2-(methylsulfonyl)-2,6-diazaspiro[3.5]nonan-6-yl)pyrido[4,3-d]pyrimidin-7-yl)naphthalen-2-ol] | 19 nM | 18 nM | 25 nM | 1410 nM | 1790 nM |  |  |  | 
CCc1c(F)ccc2cc(O)cc(-c3ncc4c(N5CCCC(C6CCNC6=O)C5)nc(OC[C@@]56CCCN5C[C@H](F)C6)nc4c3F)c12 (single isomer, unassigned) [Example 617] | 9 nM | 4 nM | 4 nM |  |  |  |  | 1550 nM | 763 nM
